Results as given in patent US9783537B2, “3-(4-ethylnylphenyl) pyridopyrimidinone compounds and process for preparation thereof useful as potential anticancer agents” (Council of Scientific & Industrial Research, priority 2013, dated 2017).
Read-outs that look alike come from different tables or passages of the source.

Legend:
CCRF-CEM = assay: SRB 48 h growth assay, Leukemia CCRF-CEM; type: cell-based, human; details: for CC50 / GI50: Homo sapiens; for CC50: CCKF-CEM, read-out: Log10 LC50 (converted)
K-562 = assay: SRB 48 h growth assay, Leukemia K-562; type: cell-based, human; details: for GI50 / CC50: Homo sapiens, K562, K-562, Leukemia; for CC50: read-out: Log10 LC50 (converted); for Log10 TGI50: K-562, Leukemia
RPMI-8226 = assay: SRB 48 h growth assay, Leukemia RPMI-8226; type: cell-based, human; details: RPMI-8226, Leukemia; for GI50 / CC50: Homo sapiens; for CC50: read-out: Log10 LC50 (converted)
NCI-H226 = assay: SRB 48 h growth assay, Non-small Cell Lung NCI-H226; type: cell-based, human; details: for GI50: Homo sapiens
NCI-H23 = assay: SRB 48 h growth assay, Non-small Cell Lung NCI-H23; type: cell-based, human
HCT-116 = assay: SRB 48 h growth assay, Colon HCT-116; type: cell-based, human; details: HCT-116, Colon
KM12 = assay: SRB 48 h growth assay, Colon KM12; type: cell-based, human
SW-620 = assay: SRB 48 h growth assay, Colon SW-620; type: cell-based, human; details: SW-620, Colon; for GI50 / CC50: Homo sapiens; for CC50: read-out: Log10 LC50 (converted)
LOX IMVI = assay: SRB 48 h growth assay, Melanoma LOX IMVI; type: cell-based, human
M14 = assay: SRB 48 h growth assay, Melanoma M14; type: cell-based, human
MDA-MB-435 = assay: SRB 48 h growth assay, Melanoma MDA-MB-435; type: cell-based, human; details: MDA-MB-435, Melanoma; for GI50 / CC50: Homo sapiens; for CC50: read-out: Log10 LC50 (converted)
SK-MEL-5 = assay: SRB 48 h growth assay, Melanoma SK-MEL-5; type: cell-based, human; details: SK-MEL-5, Melanoma
UACC-62 = assay: SRB 48 h growth assay, Melanoma UACC-62; type: cell-based, human; details: UACC-62, Melanoma
OVCAR-3 = assay: SRB 48 h growth assay, Ovarian OVCAR-3; type: cell-based, human; details: OVCAR-3, Ovarian
OVCAR-8 = assay: SRB 48 h growth assay, Ovarian OVCAR-8; type: cell-based, human; details: OVCAR-8, Ovarian; for GI50 / CC50: Homo sapiens; for CC50: read-out: Log10 LC50 (converted)
786-0 = assay: SRB 48 h growth assay, Renal 786-0; type: cell-based, human; details: 786-0, Renal
DU-145 = assay: SRB 48 h growth assay, Prostate DU-145; type: cell-based, human; details: DU-145, Prostate; for CC50 / GI50: Homo sapiens; for CC50: read-out: Log10 LC50 (converted)
MCF7 = assay: SRB 48 h growth assay, Breast MCF7; type: cell-based, human; details: for GI50 / CC50: Homo sapiens; for CC50: read-out: Log10 LC50 (converted)
HS578T = assay: SRB 48 h growth assay, Breast HS578T; type: cell-based, human; details: for GI50 / CC50: Homo sapiens, Hs-578T; for CC50: read-out: Log10 LC50 (converted)
BT-549 = assay: SRB 48 h growth assay, Breast BT-549; type: cell-based, human; details: BT-549, Breast
MDA-MB-468 = assay: SRB 48 h growth assay, Breast MDA-MB-468; type: cell-based, human; details: MDA-MB-468, Breast
[1] = tested on: six leukemia cancer cell lines (CCRF-CEM, HL-60, K-562, MOLT-4, SR and RPMI-8226); assay: in vitro anticancer activity, leukemia panel; type: cell-based; details: Homo sapiens, exposure at least 48 h, read-out: GI50, range over panel
[2] = tested on: seven colon cancer cell line (COLO 205, HCC-2998, HCT-116, HCT-15, HT29, KM12 and SW-620); assay: in vitro anticancer activity, colon panel; type: cell-based; details: Homo sapiens; seven colon cancer cell lines, exposure at least 48 h; read-out: GI50, range over panel
[3] = tested on: six CNS cancer cell line (SF-268, SF-295, SF-539, SNB-19, SNB-75 and U251); assay: in vitro anticancer activity, CNS panel; type: cell-based; details: Homo sapiens; six CNS cancer cell lines, exposure at least 48 h; read-out: GI50, range over panel
[4] = in vitro anticancer activity, melanoma panel; type: cell-based; details: Homo sapiens; nine melanoma cell lines, exposure at least 48 h; read-out: GI50, range over panel
[5] = tested on: two prostate cancer cell line (PC-3, DU-145); assay: in vitro anticancer activity, prostate panel; type: cell-based; details: Homo sapiens; two prostate cancer cell lines, exposure at least 48 h; read-out: GI50, range over panel
[6] = read-out: Growth Inhibition GI50
[7] = read-out: Log10 GI50 (converted)
[8] = Homo sapiens, read-out: Log10 LC50 (converted)
[9] = Homo sapiens, read-out: Growth Inhibition GI50
[10] = Homo sapiens, read-out: Log10 GI50 (converted)

Structure (SMILES): C#Cc1ccc(-n2c(/C=C/c3ccc(Cl)c(F)c3)nc3ncccc3c2=O)cc1 [4g, (E)-2-(4-chloro-3-fluorostyryl)-3-(4-ethynylphenyl)pyrido[2,3-d]pyrimidin-4(3H)-one]
- CC50 (CCRF-CEM): > 100 µM
- GI50 (CCRF-CEM; [6]): 290 nM
- GI50 (CCRF-CEM; [7]): 288 nM
- GI50 (K-562; [6]): 330 nM
- GI50 (K-562; [7]): 339 nM
- CC50 (K-562): > 100 µM
- Log10 TGI50 (K-562): >−4.00
- GI50 (RPMI-8226; [6]): 250 nM
- GI50 (RPMI-8226; [7]): 257 nM
- CC50 (RPMI-8226): > 100 µM
- GI50 (NCI-H226; [6]): 0.35 µM
- GI50 (NCI-H226; [7]): 0.355 µM
- LC50 (NCI-H23; [8]): > 100 µM
- GI50 (HCT-116; [9]): 330 nM
- GI50 (HCT-116; [10]): 331 nM
- GI50 (KM12; [9]): 340 nM
- GI50 (KM12; [10]): 347 nM
- GI50 (SW-620; [6]): 370 nM
- GI50 (SW-620; [7]): 380 nM
- CC50 (SW-620): > 100 µM
- GI50 (LOX IMVI; [9]): 260 nM
- GI50 (LOX IMVI; [10]): 263 nM
- GI50 (M14; [9]): 300 nM
- GI50 (M14; [10]): 302 nM
- GI50 (MDA-MB-435; [6]): 190 nM
- GI50 (MDA-MB-435; [7]): 195 nM
- CC50 (MDA-MB-435): > 100 µM
- GI50 (SK-MEL-5; [9]): 220 nM
- GI50 (SK-MEL-5; [10]): 229 nM
- GI50 (UACC-62; [9]): 0.48 µM
- GI50 (UACC-62; [10]): 0.49 µM
- GI50 (OVCAR-3; [9]): 300 nM
- GI50 (OVCAR-3; [10]): 302 nM
- GI50 (OVCAR-8; [6]): 0.35 µM
- GI50 (OVCAR-8; [7]): 0.355 µM
- CC50 (OVCAR-8): > 100 µM
- GI50 (786-0; [9]): 360 nM
- GI50 (786-0; [10]): 372 nM
- CC50 (DU-145): > 100 µM
- GI50 (MCF7; [6]): 320 nM
- GI50 (MCF7; [7]): 324 nM
- CC50 (MCF7): > 100 µM
- Log10 TGI50 (HS578T): >−4.00
- GI50 (HS578T; [6]): 410 nM
- GI50 (HS578T; [7]): 417 nM
- CC50 (HS578T): > 100 µM
- GI50 (BT-549; [9]): 320 nM
- GI50 (BT-549; [10]): 324 nM
- GI50 (MDA-MB-468; [9]): 240 nM
- GI50 (MDA-MB-468; [10]): 245 nM
- GI50 [1]: 250 to 540 nM
- GI50 [2]: 330 to 370 nM
- GI50 [3]: 340 nM
- GI50 [4]: 190 to 540 nM
- GI50 [5]: 340 nM

Structure (SMILES): C#Cc1ccc(-n2c(/C=C/c3cc(OC)c(OC)c(OC)c3)nc3ncccc3c2=O)cc1 [4q, (E)-3-(4-Ethynylphenyl)-2-(3,4,5-trimethoxystyryl)pyrido[2,3-d]pyrimidin-4(3H)-one]
- Log10 TGI50 (CCRF-CEM): >−4.00
- CC50 (CCRF-CEM): > 100 µM
- GI50 (CCRF-CEM; [6]): 4900 nM
- GI50 (CCRF-CEM; [7]): 4900 nM
- GI50 (K-562; [6]): 3830 nM
- GI50 (K-562; [7]): 3800 nM
- CC50 (K-562): > 100 µM
- Log10 TGI50 (K-562): >−4.00
- GI50 (RPMI-8226; [6]): 3600 nM
- GI50 (RPMI-8226; [7]): 3630 nM
- CC50 (RPMI-8226): > 100 µM
- Log10 TGI50 (RPMI-8226): >−4.00
- Log10 TGI50 (NCI-H226): >−4.00
- GI50 (NCI-H226; [6]): 12.9 µM
- GI50 (NCI-H226; [7]): 12.9 µM
- Log10 TGI50 (NCI-H23): >−4.00
- GI50 (NCI-H23; [9]): 17.3 µM
- GI50 (NCI-H23; [10]): 17.4 µM
- Log10 TGI50 (HCT-116): >−4.00
- GI50 (HCT-116; [9]): 5170 nM
- GI50 (HCT-116; [10]): 5130 nM
- CC50 (HCT-116; [8]): > 100 µM
- Log10 TGI50 (KM12): −4.89
- GI50 (KM12; [9]): 3320 nM
- GI50 (KM12; [10]): 3310 nM
- CC50 (KM12; [8]): > 100 µM
- GI50 (SW-620; [6]): 3290 nM
- GI50 (SW-620; [7]): 3310 nM
- CC50 (SW-620): > 100 µM
- Log10 TGI50 (SW-620): −4.30
- Log10 TGI50 (LOX IMVI): −4.19
- GI50 (LOX IMVI; [9]): 4610 nM
- GI50 (LOX IMVI; [10]): 4570 nM
- CC50 (LOX IMVI; [8]): > 100 µM
- Log10 TGI50 (M14): ->−4.00
- GI50 (M14; [9]): 4930 nM
- GI50 (M14; [10]): 4900 nM
- CC50 (M14; [8]): > 100 µM
- GI50 (MDA-MB-435; [6]): 1980 nM
- GI50 (MDA-MB-435; [7]): 2000 nM
- CC50 (MDA-MB-435): 97.7 µM
- Log10 TGI50 (MDA-MB-435): −5.27
- GI50 (SK-MEL-5; [9]): 1780 nM
- GI50 (SK-MEL-5; [10]): 1780 nM
- CC50 (SK-MEL-5; [8]): 18.2 µM
- Log10 TGI50 (SK-MEL-5): −5.36
- GI50 (UACC-62; [9]): 6.9 µM
- GI50 (UACC-62; [10]): 6.92 µM
- CC50 (UACC-62; [8]): > 100 µM
- Log10 TGI50 (UACC-62): >−4.00
- GI50 (OVCAR-3; [9]): 2330 nM
- GI50 (OVCAR-3; [10]): 2340 nM
- CC50 (OVCAR-3; [8]): > 100 µM
- Log10 TGI50 (OVCAR-3): −5.19
- GI50 (OVCAR-8; [6]): 9.67 µM
- GI50 (OVCAR-8; [7]): 9.77 µM
- CC50 (OVCAR-8): > 100 µM
- Log10 TGI50 (OVCAR-8): >−4.00
- Log10 TGI50 (786-0): >−4.00
- GI50 (786-0; [9]): 5310 nM
- GI50 (786-0; [10]): 5250 nM
- CC50 (786-0; [8]): > 100 µM
- Log10 TGI50 (DU-145): >−4.00
- GI50 (DU-145; [6]): 5.36 µM
- GI50 (DU-145; [7]): 5.37 µM
- CC50 (DU-145): > 100 µM
- Log10 TGI50 (MCF7): >−4.00
- GI50 (MCF7; [6]): 3170 nM
- GI50 (MCF7; [7]): 3160 nM
- CC50 (MCF7): > 100 µM
- Log10 TGI50 (HS578T): −4.64
- GI50 (HS578T; [6]): 3670 nM
- GI50 (HS578T; [7]): 3630 nM
- CC50 (HS578T): > 100 µM
- Log10 TGI50 (BT-549): −5.00
- GI50 (BT-549; [9]): 2990 nM
- GI50 (BT-549; [10]): 3020 nM
- CC50 (BT-549; [8]): > 100 µM
- GI50 (MDA-MB-468; [9]): 2830 nM
- GI50 (MDA-MB-468; [10]): 2820 nM
- CC50 (MDA-MB-468; [8]): > 100 µM
- Log10 TGI50 (MDA-MB-468): >−4.00
- GI50 [1]: 1390 to 3010 nM
- GI50 [2]: 1640 to 2230 nM
- GI50 [3]: 1670 to 2270 nM
- GI50 [4]: 1490 to 2270 nM
- GI50 [5]: 1960 to 3760 nM
